Experimental data: ChEMBL document CHEMBL1201862, “PubChem BioAssay data set” (2004)
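Briefly, cells in 96-well plates were exposed to five compound concentrations for 48 h, and endpoints were estimated by linear interpolation. The concentration for 50% growth inhibition is given as GI50.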 Calls of active or inactive are those of the source. No stated cut-off is given here; in the data, active = GI50 up to about 1.1 µM and inactive = higher.

Columns and labels:
Assay in all cases: DTP human tumour cell line panel, 48 h
ACHN = system: ACHN
MDA-MB-231 = system: MDA-MB-231
RXF 393 = system: RXF 393
HCT-116 = system: HCT-116
HL-60 = system: HL-60
RPMI-8226 = system: RPMI-8226
SF-295 = system: SF-295
SK-MEL-5 = system: SK-MEL-5
786-0 = system: 786-0
DU-145 = system: DU-145
KM12 = system: KM12
K562 = system: K562
MDA-N = system: MDA-N
UACC-257 = system: UACC-257
OVCAR-8 = system: OVCAR-8
HT-29 = system: HT-29
SK-MEL-28 = system: SK-MEL-28
HCC 2998 = system: HCC 2998
NCI/ADR-RES = system: NCI/ADR-RES
IGROV-1 = system: IGROV-1
Malme-3M = system: Malme-3M
UACC-62 = system: UACC-62
HOP-62 = system: HOP-62
A549 = system: A549
OVCAR-3 = system: OVCAR-3
SN12C = system: SN12C
A498 = system: A498
CAKI-1 = system: CAKI-1
LOX IMVI = system: LOX IMVI
CCRF-CEM = system: CCRF-CEM
SW-620 = system: SW-620
MCF7 = system: MCF7
OVCAR-4 = system: OVCAR-4
NCI-H23 = system: NCI-H23
MOLT-4 = system: MOLT-4
PC-3 = system: PC-3
EKVX = system: EKVX
SNB-75 = system: SNB-75
M14 = system: M14
HCT-15 = system: HCT-15
U-251 = system: U-251
HOP-92 = system: HOP-92
BT-549 = system: BT-549
SF-539 = system: SF-539
COLO 205 = system: COLO 205
OVCAR-5 = system: OVCAR-5
SK-OV-3 = system: SK-OV-3
NCI-H522 = system: NCI-H522
NCI-H226 = system: NCI-H226
Hs-578T = system: Hs-578T
SK-MEL-2 = system: SK-MEL-2
MDA-MB-435 = system: MDA-MB-435
UO-31 = system: UO-31
SNB-19 = system: SNB-19
NCI-H460 = system: NCI-H460
SF-268 = system: SF-268
SR = system: SR

What does the source list for `CCOP(=O)(OCC)/C(C#N)=C/c1ncc[nH]1`?
GI50 (ACHN): > 100 µM (inactive); GI50 (MDA-MB-231): > 100 µM (inactive); GI50 (RXF 393): > 100 µM (inactive); GI50 (HCT-116): > 100 µM (inactive); GI50 (HL-60): > 100 µM (inactive); GI50 (RPMI-8226): > 100 µM (inactive); GI50 (SF-295): > 100 µM (inactive); GI50 (SK-MEL-5): > 100 µM (inactive); GI50 (786-0): > 100 µM (inactive); GI50 (DU-145): > 100 µM (inactive); GI50 (KM12): > 100 µM (inactive); GI50 (K562): > 100 µM (inactive); GI50 (MDA-N): > 100 µM (inactive); GI50 (UACC-257): > 100 µM (inactive); GI50 (OVCAR-8): > 100 µM (inactive); GI50 (HT-29): > 100 µM (inactive); GI50 (SK-MEL-28): > 100 µM (inactive); GI50 (HCC 2998): > 100 µM (inactive); GI50 (NCI/ADR-RES): > 100 µM (inactive); GI50 (IGROV-1): > 10 µM (inactive); GI50 (Malme-3M): > 100 µM (inactive); GI50 (UACC-62): > 100 µM (inactive); GI50 (HOP-62): > 100 µM (inactive); GI50 (A549): > 100 µM (inactive); GI50 (OVCAR-3): > 100 µM (inactive); GI50 (SN12C): > 100 µM (inactive); GI50 (A498): > 100 µM (inactive); GI50 (CAKI-1): > 100 µM (inactive); GI50 (LOX IMVI): > 100 µM (inactive); GI50 (CCRF-CEM): > 100 µM (inactive); GI50 (SW-620): > 100 µM (inactive); GI50 (MCF7): > 100 µM (inactive); GI50 (OVCAR-4): > 100 µM (inactive); GI50 (NCI-H23): > 100 µM (inactive); GI50 (MOLT-4): > 100 µM (inactive); GI50 (PC-3): > 100 µM (inactive); GI50 (EKVX): > 100 µM (inactive); GI50 (SNB-75): > 100 µM (inactive); GI50 (M14): > 100 µM (inactive); GI50 (HCT-15): > 10 µM; GI50 (U-251): > 100 µM (inactive); GI50 (HOP-92): > 100 µM (inactive); GI50 (BT-549): > 100 µM (inactive); GI50 (SF-539): 8.32 µM (inactive); GI50 (COLO 205): > 100 µM (inactive); GI50 (OVCAR-5): > 100 µM (inactive); GI50 (SK-OV-3): > 100 µM (inactive); GI50 (NCI-H522): > 100 µM (inactive); GI50 (NCI-H226): > 100 µM (inactive); GI50 (Hs-578T): > 100 µM (inactive); GI50 (SK-MEL-2): > 100 µM (inactive); GI50 (MDA-MB-435): > 100 µM (inactive); GI50 (UO-31): > 100 µM (inactive); GI50 (SNB-19): > 100 µM (inactive); GI50 (NCI-H460): > 100 µM (inactive); GI50 (SF-268): > 100 µM (inactive); GI50 (SR): > 100 µM (inactive)
